Consider one compound from ChEMBL document CHEMBL6109120, “Discovery of Novel SIK2/3 Inhibitors for the Potential Treatment of MEF2C+ Acute Myeloid Leukemia (AML)” (J Med Chem, 2025).

Assay [1] concerns the target T1, Serine/threonine-protein kinase TBK1 (Homo sapiens, UniProt Q9UHD2).
T1 sequence (Q9UHD2 whole entry): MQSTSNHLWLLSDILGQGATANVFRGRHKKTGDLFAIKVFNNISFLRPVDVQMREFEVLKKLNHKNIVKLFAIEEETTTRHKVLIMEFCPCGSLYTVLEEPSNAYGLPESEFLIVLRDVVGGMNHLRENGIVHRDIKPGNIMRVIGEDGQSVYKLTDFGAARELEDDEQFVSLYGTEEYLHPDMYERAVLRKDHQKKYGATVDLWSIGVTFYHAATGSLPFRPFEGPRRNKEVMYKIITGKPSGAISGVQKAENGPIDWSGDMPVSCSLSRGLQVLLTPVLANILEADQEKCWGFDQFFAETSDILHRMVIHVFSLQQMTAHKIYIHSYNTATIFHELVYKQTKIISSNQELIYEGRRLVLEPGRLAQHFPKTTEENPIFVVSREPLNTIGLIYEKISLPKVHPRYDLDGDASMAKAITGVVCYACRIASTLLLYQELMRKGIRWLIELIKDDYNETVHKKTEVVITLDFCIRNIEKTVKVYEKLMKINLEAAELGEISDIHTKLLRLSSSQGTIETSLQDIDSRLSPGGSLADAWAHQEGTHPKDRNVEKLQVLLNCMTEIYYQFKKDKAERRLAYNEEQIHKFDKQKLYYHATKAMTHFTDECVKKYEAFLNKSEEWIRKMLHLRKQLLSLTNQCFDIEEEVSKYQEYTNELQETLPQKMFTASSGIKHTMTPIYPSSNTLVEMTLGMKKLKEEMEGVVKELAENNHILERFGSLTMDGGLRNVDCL
Description: Binding affinity to human TBK1 by KINOMEscan assay

Assay [2] has as its target Platelet-derived growth factor receptor alpha (Homo sapiens, UniProt P16234).
Description: Binding affinity to human PDGFRalpha by KINOMEscan assay
The target in assay [3] is T2, Receptor-type tyrosine-protein kinase FLT3 (Homo sapiens, UniProt P36888).
T2 sequence (P36888 whole entry): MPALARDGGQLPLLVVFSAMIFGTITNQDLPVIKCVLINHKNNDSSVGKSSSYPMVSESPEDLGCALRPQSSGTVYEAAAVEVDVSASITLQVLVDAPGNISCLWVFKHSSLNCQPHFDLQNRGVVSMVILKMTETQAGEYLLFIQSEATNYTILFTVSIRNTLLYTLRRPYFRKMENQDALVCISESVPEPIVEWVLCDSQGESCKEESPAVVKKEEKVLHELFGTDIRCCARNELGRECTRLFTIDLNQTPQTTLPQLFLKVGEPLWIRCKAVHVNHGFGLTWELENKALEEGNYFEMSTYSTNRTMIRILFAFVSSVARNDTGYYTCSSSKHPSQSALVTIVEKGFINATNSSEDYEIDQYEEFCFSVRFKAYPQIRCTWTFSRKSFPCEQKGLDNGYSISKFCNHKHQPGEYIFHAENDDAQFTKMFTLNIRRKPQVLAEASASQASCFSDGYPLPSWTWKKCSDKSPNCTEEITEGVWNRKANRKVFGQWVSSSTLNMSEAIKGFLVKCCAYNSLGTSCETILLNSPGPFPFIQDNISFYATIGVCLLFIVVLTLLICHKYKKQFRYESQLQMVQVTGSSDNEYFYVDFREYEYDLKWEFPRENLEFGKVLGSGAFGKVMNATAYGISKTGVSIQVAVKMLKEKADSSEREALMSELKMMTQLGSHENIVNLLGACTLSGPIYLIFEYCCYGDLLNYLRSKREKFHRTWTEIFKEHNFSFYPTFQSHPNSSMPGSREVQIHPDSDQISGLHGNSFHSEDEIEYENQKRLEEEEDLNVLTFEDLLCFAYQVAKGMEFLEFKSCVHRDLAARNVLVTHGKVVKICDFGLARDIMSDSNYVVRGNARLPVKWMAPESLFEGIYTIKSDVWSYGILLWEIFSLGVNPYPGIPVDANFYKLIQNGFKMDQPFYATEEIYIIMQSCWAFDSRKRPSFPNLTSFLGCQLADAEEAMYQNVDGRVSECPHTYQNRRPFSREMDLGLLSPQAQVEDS
Briefly: Binding affinity to human FLT3 by KINOMEscan assay.

Another assay addresses Cytochrome P450 2C9 (Homo sapiens, UniProt P11712). Description: Inhibition of CYP2C9 in human liver microsomes assessed as diclofenac 4-hydroxylation reaction measured after 30 mins by LC/MS/MS analysis. The class given is ADME, Microsome. A general note: Liver microsomes are a subcellular fraction often used to study metabolism.

pIC50: −log10 of the molar value.

Platelet-derived growth factor receptor alpha, sequence (P16234 whole entry): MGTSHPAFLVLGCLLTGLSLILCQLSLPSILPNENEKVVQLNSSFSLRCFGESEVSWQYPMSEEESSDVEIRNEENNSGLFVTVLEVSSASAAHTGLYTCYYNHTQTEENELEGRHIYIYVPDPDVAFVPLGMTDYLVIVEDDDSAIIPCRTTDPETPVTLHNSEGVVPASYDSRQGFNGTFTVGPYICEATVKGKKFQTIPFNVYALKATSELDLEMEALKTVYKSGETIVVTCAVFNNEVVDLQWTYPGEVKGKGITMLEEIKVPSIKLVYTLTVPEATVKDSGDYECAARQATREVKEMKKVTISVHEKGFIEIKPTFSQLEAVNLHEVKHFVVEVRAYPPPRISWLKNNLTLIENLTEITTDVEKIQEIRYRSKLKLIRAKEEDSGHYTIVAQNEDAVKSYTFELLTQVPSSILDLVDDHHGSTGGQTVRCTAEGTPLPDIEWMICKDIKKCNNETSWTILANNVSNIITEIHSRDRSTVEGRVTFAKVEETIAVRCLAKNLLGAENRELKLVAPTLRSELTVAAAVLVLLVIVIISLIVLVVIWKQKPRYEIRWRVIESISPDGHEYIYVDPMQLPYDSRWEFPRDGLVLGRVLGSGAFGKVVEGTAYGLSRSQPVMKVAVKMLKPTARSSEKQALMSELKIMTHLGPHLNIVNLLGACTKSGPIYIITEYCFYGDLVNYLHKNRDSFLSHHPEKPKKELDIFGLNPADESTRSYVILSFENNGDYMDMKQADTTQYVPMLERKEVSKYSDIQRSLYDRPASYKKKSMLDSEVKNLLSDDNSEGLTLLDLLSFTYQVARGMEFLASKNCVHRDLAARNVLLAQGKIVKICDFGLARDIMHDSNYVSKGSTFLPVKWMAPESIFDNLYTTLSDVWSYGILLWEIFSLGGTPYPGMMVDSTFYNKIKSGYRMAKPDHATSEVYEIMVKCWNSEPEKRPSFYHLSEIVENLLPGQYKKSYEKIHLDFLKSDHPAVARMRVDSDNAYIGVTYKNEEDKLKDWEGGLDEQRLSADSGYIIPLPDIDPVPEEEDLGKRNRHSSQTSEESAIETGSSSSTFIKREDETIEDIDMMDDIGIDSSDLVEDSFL
Cytochrome P450 2C9, sequence (P11712 whole entry): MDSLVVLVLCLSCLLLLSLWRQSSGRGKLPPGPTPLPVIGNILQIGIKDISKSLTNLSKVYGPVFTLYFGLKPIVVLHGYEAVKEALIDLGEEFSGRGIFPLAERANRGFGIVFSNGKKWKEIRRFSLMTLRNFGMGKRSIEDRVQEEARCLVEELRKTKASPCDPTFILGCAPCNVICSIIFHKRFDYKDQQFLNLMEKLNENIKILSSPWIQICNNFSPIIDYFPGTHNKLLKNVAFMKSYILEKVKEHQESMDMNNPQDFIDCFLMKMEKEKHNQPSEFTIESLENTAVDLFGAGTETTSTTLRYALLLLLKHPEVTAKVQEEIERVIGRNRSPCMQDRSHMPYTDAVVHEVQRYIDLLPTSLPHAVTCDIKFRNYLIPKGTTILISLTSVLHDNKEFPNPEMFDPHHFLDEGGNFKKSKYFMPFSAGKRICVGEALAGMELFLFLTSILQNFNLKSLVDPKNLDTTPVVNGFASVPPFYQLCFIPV

`COc1nc(-c2cc(-c3cnn(C)c3)cnc2N)cc2c1C(=O)N(CC(F)(F)F)CC2`: the negative-log IC50 (pIC50) is 6.64 in assay [1], 7.51 in assay [2], 7.07 in assay [3] and under 4.30 at Cytochrome P450 2C9.

A word on the pIC50: it is the IC50 on a negative log10 scale, so that one unit is a factor of ten.
